One data set addresses Cytochrome P450 2C19 (Homo sapiens, UniProt P33261). As to the kind of experiment: Inhibition of CYP2C19. In kind it is ADME.
The target of data set [1] is T1, Prostaglandin E2 receptor EP3 subtype (Homo sapiens, UniProt P43115).
T1 sequence (P43115 whole entry): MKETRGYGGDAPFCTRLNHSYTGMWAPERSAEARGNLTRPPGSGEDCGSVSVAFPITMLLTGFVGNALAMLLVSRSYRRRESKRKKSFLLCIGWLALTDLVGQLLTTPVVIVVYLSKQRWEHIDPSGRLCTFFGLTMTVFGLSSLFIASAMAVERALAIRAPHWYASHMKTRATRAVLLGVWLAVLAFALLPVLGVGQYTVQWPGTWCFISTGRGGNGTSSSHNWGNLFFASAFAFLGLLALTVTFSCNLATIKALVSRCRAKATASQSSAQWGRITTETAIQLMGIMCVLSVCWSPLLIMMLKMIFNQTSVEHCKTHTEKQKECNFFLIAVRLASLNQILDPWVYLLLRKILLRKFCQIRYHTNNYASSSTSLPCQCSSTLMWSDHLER
As to the kind of experiment: Antagonist activity at human EP3c receptor expressed in human U2OS cells assessed as inhibition of PGE2-induced calcium mobilization after 24 hrs by FLIPR assay. In kind it is functional, cell-based.

Data set [2] addresses T1, Prostaglandin E2 receptor EP3 subtype. As to the kind of experiment: Binding affinity to human EP3.
The target of a further data set is Cytochrome P450 3A4 (Homo sapiens, UniProt P08684). As to the kind of experiment: Inhibition of CYP3A4. In kind it is ADME.
Data set [3] deals with Prostaglandin F2-alpha receptor (Homo sapiens, UniProt P43088). As to the kind of experiment: Antagonist activity at FP receptor in human U2OS cells expressing Gqi5 assessed as inhibition of PGE2-induced response after 48 hrs by FLIPR assay. It counts as functional, cell-based.
Data set [4] in a line: Drug metabolism in human liver S9 fraction assessed as NADPH-dependent glutathione conjugate level at 10 uM after 30 mins by LC-MS/MS analysis. It counts as ADME, subcellular. Particulars: s9, 0.5 h; call rule not given here.
Data set [5] can be described thus: Aqueous solubility of the compound. It counts as physicochemical. The settings on record: buffer.
Data set [6] concerns the target T2, Prostaglandin D2 receptor (Homo sapiens, UniProt Q13258).
T2 sequence (Q13258 whole entry): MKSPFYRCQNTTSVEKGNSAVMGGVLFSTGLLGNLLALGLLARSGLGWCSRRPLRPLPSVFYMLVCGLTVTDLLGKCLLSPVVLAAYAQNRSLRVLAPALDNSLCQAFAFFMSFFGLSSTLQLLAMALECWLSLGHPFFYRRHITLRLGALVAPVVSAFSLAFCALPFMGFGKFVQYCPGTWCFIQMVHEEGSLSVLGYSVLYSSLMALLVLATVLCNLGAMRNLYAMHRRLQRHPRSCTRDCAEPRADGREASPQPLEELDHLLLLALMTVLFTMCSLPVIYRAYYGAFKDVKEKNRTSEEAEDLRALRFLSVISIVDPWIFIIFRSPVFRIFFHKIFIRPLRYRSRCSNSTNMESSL
As to the kind of experiment: Binding affinity at human DP receptor.

Data set [7] is described as follows: Half life in Sprague-Dawley rat at 1 mg/kg, iv. It counts as ADME, organism-based. Further details: dose 1 mg/kg, route intravenous. Particulars: in vivo.
The target in a further data set is T3, Cytochrome P450 1A2 (Homo sapiens, UniProt P05177).
T3 sequence (P05177 whole entry): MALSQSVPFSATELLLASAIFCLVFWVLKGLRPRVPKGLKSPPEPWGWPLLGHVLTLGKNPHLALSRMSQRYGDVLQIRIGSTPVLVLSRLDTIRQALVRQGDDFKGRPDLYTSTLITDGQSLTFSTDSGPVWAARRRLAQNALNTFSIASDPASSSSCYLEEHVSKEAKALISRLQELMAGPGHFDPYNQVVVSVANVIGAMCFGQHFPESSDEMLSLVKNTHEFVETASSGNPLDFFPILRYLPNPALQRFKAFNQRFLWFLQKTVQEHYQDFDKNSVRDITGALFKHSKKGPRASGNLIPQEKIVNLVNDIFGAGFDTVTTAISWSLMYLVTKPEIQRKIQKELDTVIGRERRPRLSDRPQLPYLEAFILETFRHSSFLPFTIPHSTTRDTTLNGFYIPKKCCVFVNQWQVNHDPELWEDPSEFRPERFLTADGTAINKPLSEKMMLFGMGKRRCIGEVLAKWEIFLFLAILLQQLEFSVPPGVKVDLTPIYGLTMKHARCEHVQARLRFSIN
As to the kind of experiment: Inhibition of CYP1A2. In kind it is ADME.

What is called IC50 is the concentration that inhibits the measured activity by half. For orientation: Ki means a dissociation constant, usually derived from enzyme kinetics or from competition with a known ligand. Usually solubility stands for the dissolved amount per volume that the medium holds. A higher solubility goes with much dissolved substance. What is called half-life is the time in which the quantity being followed falls by half.

Values after ≈ are worked out from the molar mass of the structure shown.

Sequence of Cytochrome P450 2C19 (P33261 whole entry): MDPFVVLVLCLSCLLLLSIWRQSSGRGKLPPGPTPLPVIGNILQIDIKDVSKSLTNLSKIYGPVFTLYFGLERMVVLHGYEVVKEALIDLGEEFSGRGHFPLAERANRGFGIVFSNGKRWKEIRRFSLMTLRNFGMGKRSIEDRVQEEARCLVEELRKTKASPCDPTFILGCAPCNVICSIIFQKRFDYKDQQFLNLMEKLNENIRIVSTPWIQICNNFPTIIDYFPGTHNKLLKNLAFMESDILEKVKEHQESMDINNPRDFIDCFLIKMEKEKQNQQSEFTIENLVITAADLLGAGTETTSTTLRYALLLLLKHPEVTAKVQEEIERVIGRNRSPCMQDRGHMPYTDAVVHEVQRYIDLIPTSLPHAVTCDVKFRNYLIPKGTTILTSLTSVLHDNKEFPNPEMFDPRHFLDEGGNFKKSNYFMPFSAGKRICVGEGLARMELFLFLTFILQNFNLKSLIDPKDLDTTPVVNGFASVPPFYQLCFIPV
Sequence of Cytochrome P450 3A4 (P08684 whole entry): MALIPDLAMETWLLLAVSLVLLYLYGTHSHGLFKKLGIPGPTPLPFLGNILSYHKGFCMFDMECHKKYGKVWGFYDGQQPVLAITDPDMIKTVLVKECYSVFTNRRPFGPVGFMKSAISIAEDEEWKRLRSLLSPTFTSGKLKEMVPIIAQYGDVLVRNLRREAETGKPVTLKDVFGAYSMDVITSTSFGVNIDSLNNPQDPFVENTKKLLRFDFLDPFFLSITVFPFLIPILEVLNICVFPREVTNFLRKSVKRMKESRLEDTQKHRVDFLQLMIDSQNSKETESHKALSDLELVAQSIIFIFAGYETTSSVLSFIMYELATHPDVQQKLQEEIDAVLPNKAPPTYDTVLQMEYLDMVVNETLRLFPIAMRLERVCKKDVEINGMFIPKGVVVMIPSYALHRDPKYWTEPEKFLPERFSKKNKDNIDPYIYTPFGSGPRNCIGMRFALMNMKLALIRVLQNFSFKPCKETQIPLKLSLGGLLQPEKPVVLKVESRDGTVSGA
Sequence of Prostaglandin F2-alpha receptor (P43088 whole entry): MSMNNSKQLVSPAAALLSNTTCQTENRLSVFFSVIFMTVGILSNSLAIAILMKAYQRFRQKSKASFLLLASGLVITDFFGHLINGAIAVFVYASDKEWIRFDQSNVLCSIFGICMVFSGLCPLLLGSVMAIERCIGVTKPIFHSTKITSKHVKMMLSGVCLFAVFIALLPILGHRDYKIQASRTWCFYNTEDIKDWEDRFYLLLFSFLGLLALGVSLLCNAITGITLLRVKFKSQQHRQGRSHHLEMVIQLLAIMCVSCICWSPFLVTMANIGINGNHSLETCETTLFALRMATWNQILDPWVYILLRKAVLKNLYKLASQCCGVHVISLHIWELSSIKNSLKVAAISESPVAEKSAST

Turning to `CC(C)C1(c2ccc(-c3ccc4ccccc4c3)[nH]c2=O)OC(O)=NC1=O` (stereo not given), the concentration for half-maximal inhibition (IC50) (against Cytochrome P450 2C19; against Cytochrome P450 3A4; in [3]; in [6]; on Cytochrome P450 1A2) was over 50.1 µM in each case. The Ki in data set [1] was 0.01 µM; in [2], 0.00501 µM. In addition, the Drug metabolism result in data set [4] is “Not Active”. The solubility in [5] stood at 193 µM (≈ 69.9 µg/mL). In [7], this compound had a half-life of 4 h.

(Values after ChEMBL document CHEMBL2034937, “Novel 3-Oxazolidinedione-6-aryl-pyridinones as Potent, Selective, and Orally Active EP3 Receptor Antagonists” (ACS Med Chem Lett, 2010).)
